These results are taken from patent US7812022B2 (GlaxoSmithKline LLC, priority 2004, dated 2010).

For one assay, the system named is Colo205 tumor cell lines. Briefly: Methylene blue growth inhibition assay (cellular Method A), Colo205. Type of assay: cell-based, Human. To be noted: Homo sapiens, COLO 205, 72 h, 3 days, read-out: Activity (Method): growth inhibition IC50 class. The method, boiled down: (§1)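 Growth inhibition measured by methylene blue staining of biomass (OD 620) after 3 days' compound exposure at 37° C, final DMSO 0.3%. Cell lines: BT474 (10,000/well), HN5 (3,000/well) and Colo205, all in DMEM with 10% FBS; IC50 fitted by nonlinear regression against vehicle-treated wells.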

The test system of assay [1] is BT474 and HN5 tumor cell lines. Description: Methylene blue growth inhibition assay (cellular Method A). Type of assay: cell-based, Human. To be noted: Homo sapiens, BT-474, 72 h, 3 days, read-out: Activity (Method): growth inhibition IC50 class. The method, boiled down: as §1
A further assay has as its target T1, ErbB2 or EGFR.
T1 construct: enzymes purified from a baculovirus expression system; Reagent production was conducted essentially as described in Brignola, P. S., et al, (2002) J. Biol. Chem. 277(2): 1576-1585
Briefly: ErbB family substrate phosphorylation enzyme assay (HTRF), Method A or Method B. Type of assay: biochemical. The method, boiled down:
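Baculovirus-expressed EGFR or ErbB2 (0.8 or 10 nM in enzyme mix) phosphorylates biotinylated Peptide C with 20 µM ATP and 0.8 µM peptide (substrate-mix levels), MnCl2, pH 7.5. Reaction ran 90 min at 20 °C with EDTA stop and HTRF anti-phosphotyrosine read. Method A: enzyme added last; Method B: 1 h enzyme–compound preincubation.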

The mark [2] stands for this setting: Method B: enzyme mix pre-incubated with compound 1 hour at 20° C., started with substrate mix.
The mark [3] stands for this setting: Method A: substrate mix added first, reaction started with enzyme mix.

Each structure is given as a SMILES string.

`CN1CCN(c2ccc(Nc3nccc(-c4c(-c5cccc(NC(=O)c6c(F)cccc6F)c5)nn5ccccc45)n3)cc2)CC1` [Example 91]: the IC50 with Colo205 tumor cell lines is 100 to 1000 nM; in assay [1] it was under 100 nM. Further, the “Activity (Method): pIC50 class against ErbB2 or EGFR” value (“Activity (Method): pIC50 class” for short) at ErbB2 or EGFR (setting [2]) is on record as “+++ (B) (at least one pIC50 measurement of greater than 7 against either ErbB2 or EGFR)”.

On to `CN1CCC[C@H]1COc1ccc(Nc2nccc(-c3c(-c4cccc(NC(=O)c5c(F)cccc5F)c4)nn4ccccc34)n2)cc1F` [Example 132, 2,6-Difluoro-N-{3-[3-(2-{[3-fluoro-4-({[(2S)-1-methyl-2-pyrrolidinyl]methyl}oxy)phenyl]amino}-4-pyrimidinyl)pyrazolo[1,5-a]pyridin-2-yl]phenyl}benzamide], for which the IC50 (in the assay on Colo205 tumor cell lines; in assay [1]) was under 100 nM in each case. Besides, the “Activity (Method): pIC50 class” value at ErbB2 or EGFR (setting [2]) is “+++ (B) (at least one pIC50 measurement of greater than 7 against either ErbB2 or EGFR)”.

For the molecule `CN(C)CCCOc1ccc(Nc2nccc(-c3c(-c4cccc(NC(=O)c5c(F)cccc5F)c4)nn4ccccc34)n2)cc1Cl` [Example 126, N-[3-(3-{2-[(3-Chloro-4-{[3-(dimethylamino)propyl]-oxy}phenyl)amino]-4-pyrimidinyl}pyrazolo[1,5-a]pyridin-2-yl)phenyl]-2,6-difluorobenzamide], the IC50 in the assay on Colo205 tumor cell lines was 100 to 1000 nM; in assay [1], under 100 nM. In addition, the “Activity (Method): pIC50 class” value on ErbB2 or EGFR (setting [2]) is on record as “+++ (B) (at least one pIC50 measurement of greater than 7 against either ErbB2 or EGFR)”.

On to `O=C(Nc1cccc(-c2nn3ccccc3c2-c2ccnc(Nc3ccc(N4CCCC4=O)cc3)n2)c1)c1cc(F)ccc1F` [Example 50, 2,5-Difluoro-N-{3-[3-(2-{[4-(2-oxo-1-pyrrolidinyl)phenyl]amino}-4-pyrimidinyl)pyrazolo[1,5-a]pyridin-2-yl]phenyl}benzamide], for which the IC50 was over 1000 nM with Colo205 tumor cell lines and 100 to 1000 nM in assay [1]. For the same molecule, at ErbB2 or EGFR (setting [3]), the “Activity (Method): pIC50 class” value was “+++ (A) (at least one pIC50 measurement of greater than 7 against either ErbB2 or EGFR)”.

`O=C(Nc1cccc(-c2nn3ccccc3c2-c2ccnc(Nc3ccc(OCCN4CCOCC4)c(Cl)c3)n2)c1)c1c(F)cccc1F` [Example 127, N-[3-(3-{2-[(3-Chloro-4-{[2-(4-morpholinyl)ethyl]-oxy}phenyl)amino]-4-pyrimidinyl}pyrazolo[1,5-a]pyridin-2-yl)phenyl]-2,6-difluorobenzamide]: the 50% inhibitory concentration (IC50) with Colo205 tumor cell lines was 100 to 1000 nM; in assay [1], under 100 nM. For the same molecule, at ErbB2 or EGFR (setting [2]), the “Activity (Method): pIC50 class” value is “+++ (B) (at least one pIC50 measurement of greater than 7 against either ErbB2 or EGFR)”.

Take `COc1ccc(-c2nn3ccccc3c2-c2ccnc(Nc3ccc4c(c3)CNCC4)n2)cc1NC(=O)c1c(F)cccc1F` [Example 159, 2,6-Difluoro-N-(2-(methyloxy)-5-{3-[2-(1,2,3,4-tetrahydro-7-isoquinolinylamino)-4-pyrimidinyl]pyrazolo[1,5-a]pyridin-2-yl}phenyl)benzamide]: the IC50 (in the assay with Colo205 tumor cell lines; in assay [1]) was over 1000 nM each time. Besides, the “Activity (Method): pIC50 class” value at ErbB2 or EGFR (setting [2]) is reported as “+ (B) (no pIC50 measurement greater than 6 against either ErbB2 or EGFR)”.

Consider `COc1cccc(Nc2nccc(-c3c(-c4cccc(NC(=O)c5c(F)cccc5F)c4)nn4ccccc34)n2)c1` [Example 28, 2,6-Difluoro-N-{3-[3-(2-{[3-(methyloxy)phenyl]-amino}-4-pyrimidinyl)pyrazolo[1,5-a]pyridin-2-yl]phenyl}benzamide], for which the results for the concentration for half-maximal inhibition (IC50) (in the assay with Colo205 tumor cell lines; in assay [1]) were 100 to 1000 nM and under 100 nM, respectively. Also, the “Activity (Method): pIC50 class” value at ErbB2 or EGFR (setting [2]) is “+++ (B) (at least one pIC50 measurement of greater than 7 against either ErbB2 or EGFR)”.

On to `O=C(Nc1cc(-c2nn3ccccc3c2-c2ccnc(Nc3ccc4c(c3)CNCC4)n2)ccc1F)c1c(F)cccc1F` [Example 160, 2,6-Difluoro-N-(2-fluoro-5-{3-[2-(1,2,3,4-tetrahydro-7-isoquinolinylamino)-4-pyrimidinyl]pyrazolo[1,5-a]pyridin-2-yl}phenyl)benzamide], for which the IC50 (in the assay on Colo205 tumor cell lines; in assay [1]) was under 100 nM in each case. For the same molecule, the “Activity (Method): pIC50 class” value at ErbB2 or EGFR (setting [2]) is reported as “+++ (B) (at least one pIC50 measurement of greater than 7 against either ErbB2 or EGFR)”.

`O=C(Nc1cccc(-c2nn3ccccc3c2-c2ccnc(Nc3ccc4c(c3)OCCO4)n2)c1)c1ccccc1` [Example 4, N-(3-{3-[2-(2,3-Dihydro-benzo[1,4]dioxin-6-ylamino)-pyrimidin-4-yl]-pyrazolo[1,5-]pyridin-2-yl}-phenyl)-benzamide]: the IC50 is 100 to 1000 nM in the assay on Colo205 tumor cell lines and under 100 nM in assay [1]. For the same molecule, the “Activity (Method): pIC50 class” value at ErbB2 or EGFR (setting [3]) is on record as “+++ (A) (at least one pIC50 measurement of greater than 7 against either ErbB2 or EGFR)”.

In the case of `Cc1nc2cc(Nc3nccc(-c4c(-c5cccc(NC(=O)c6c(F)cccc6F)c5)nn5ccccc45)n3)ccc2s1` [Example 199, 2,6-Difluoro-N-[3-(3-{2-[(2-methyl-1,3-benzothiazol-5-yl)amino]-4-pyrimidinyl}pyrazolo[1,5-a]pyridin-2-yl)phenyl]benzamide], the IC50 is over 1000 nM in the assay with Colo205 tumor cell lines and under 100 nM in assay [1]. In addition, the “Activity (Method): pIC50 class” value on ErbB2 or EGFR (setting [2]) is recorded as “+++ (B) (at least one pIC50 measurement of greater than 7 against either ErbB2 or EGFR)”.

With `O=C(Nc1cccc(-c2nn3ccccc3c2-c2ccnc(Nc3cccc(F)c3)n2)c1)c1cccs1` [Example 25, N-[3-(3-{2-[(3-fluorophenyl)amino]-4-pyrimidinyl}pyrazolo[1,5-a]pyridin-2-yl)phenyl]-2-thiophenecarboxamide], the IC50 in the assay with Colo205 tumor cell lines is over 1000 nM; in assay [1], 100 to 1000 nM. In addition, the “Activity (Method): pIC50 class” value at ErbB2 or EGFR (setting [2]) is “+++ (B) (at least one pIC50 measurement of greater than 7 against either ErbB2 or EGFR)”.

As for `O=C(Nc1cccc(-c2nn3ccccc3c2-c2ccnc(Nc3cccc(O)c3)n2)c1)c1c(F)cccc1F` [Example 59, 2,6-Difluoro-N-[3-(3-{2-[(3-hydroxyphenyl)amino]-4-pyrimidinyl}pyrazolo[1,5-a]pyridin-2-yl)phenyl]benzamide], the IC50 was over 1000 nM in the assay on Colo205 tumor cell lines and under 100 nM in assay [1]. In addition, the “Activity (Method): pIC50 class” value on ErbB2 or EGFR (setting [2]) was “+++ (B) (at least one pIC50 measurement of greater than 7 against either ErbB2 or EGFR)”.

As to `COc1cc(Nc2nccc(-c3c(-c4cccc(NC(=O)c5c(F)cccc5F)c4)nn4ccccc34)n2)cc(OC)c1OC` [Example 120, 2,6-Difluoro-N-{3-[3-(2-{[3,4,5-tris(methyloxy)-phenyl]amino}-4-pyrimidinyl)pyrazolo[1,5-a]pyridin-2-yl]phenyl}benzamide], the IC50 (in the assay with Colo205 tumor cell lines; in assay [1]) was 100 to 1000 nM each time. Besides, at ErbB2 or EGFR (setting [2]), the “Activity (Method): pIC50 class” value is reported as “+++ (B) (at least one pIC50 measurement of greater than 7 against either ErbB2 or EGFR)”.

Take `CC(=O)Nc1cccc(Nc2nccc(-c3c(-c4cccc(NC(=O)c5cc(F)ccc5F)c4)nn4ccccc34)n2)c1` [Example 47, N-{3-[3-(2-{[3-(acetylamino)phenyl]amino}-4-pyrimidinyl)pyrazolo[1,5-a]pyridin-2-yl]phenyl}-2,5-difluorobenzamide]: the IC50 with Colo205 tumor cell lines is over 1000 nM; in assay [1], 100 to 1000 nM. For the same molecule, at ErbB2 or EGFR (setting [3]), the “Activity (Method): pIC50 class” value is “+++ (A) (at least one pIC50 measurement of greater than 7 against either ErbB2 or EGFR)”.

As to `O=C(Nc1cccc(-c2nn3ccccc3c2-c2ccnc(Nc3cccc(CCCN4CCOCC4)c3)n2)c1)c1c(F)cccc1F` [Example 55, 2,6-Difluoro-N-(3-{3-[2-({3-[3-(4-morpholinyl)propyl]-phenyl}amino)-4-pyrimidinyl]pyrazolo[1,5-a]pyridin-2-yl}phenyl)benzamide], the figures for the concentration for half-maximal inhibition (IC50) (with Colo205 tumor cell lines; in assay [1]) were 100 to 1000 nM and under 100 nM, respectively. For the same molecule, on ErbB2 or EGFR (setting [2]), the “Activity (Method): pIC50 class” value is reported as “+++ (B) (at least one pIC50 measurement of greater than 7 against either ErbB2 or EGFR)”.

`COc1ccc(Nc2nccc(-c3c(-c4cccc(NC(=O)c5cc(F)ccc5F)c4)nn4ccccc34)n2)cc1F` [Example 46, 2,5-Difluoro-N-{3-[3-(2-{[3-fluoro-4-(methyloxy)phenyl]amino}-4-pyrimidinyl)pyrazolo[1,5-a]pyridin-2-yl]phenyl}benzamide]: the half-inhibitory concentration (IC50) (with Colo205 tumor cell lines; in assay [1]) was over 1000 nM each time. Also, the “Activity (Method): pIC50 class” value at ErbB2 or EGFR (setting [2]) is recorded as “+ (B) (no pIC50 measurement greater than 6 against either ErbB2 or EGFR)”.

As for `COc1ccc(-c2nn3ccccc3c2-c2ccnc(Nc3cccc(CN(C)C)c3)n2)cc1NC(=O)c1c(F)cccc1F` [Example 192, N-[5-{3-[2-({3-[(dimethylamino)methyl]phenyl}amino)-4-pyrimidinyl]pyrazolo[1,5-a]pyridin-2-yl}-2-(methyloxy)phenyl]-2,6-difluorobenzamide], the half-maximal inhibitory concentration (IC50) (in the assay on Colo205 tumor cell lines; in assay [1]) was over 1000 nM in each case. Moreover, at ErbB2 or EGFR (setting [2]), the “Activity (Method): pIC50 class” value was “+ (B) (no pIC50 measurement greater than 6 against either ErbB2 or EGFR)”.

In the case of `O=C1COc2ccc(Nc3nccc(-c4c(-c5cccc(NC(=O)c6c(F)cccc6F)c5)nn5ccccc45)n3)cc2N1` [Example 197, 2,6-Difluoro-N-[3-(3-{2-[(3-oxo-3,4-dihydro-2H-1,4-benzoxazin-6-yl)amino]-4-pyrimidinyl}pyrazolo[1,5-a]pyridin-2-yl)phenyl]benzamide], the 50% inhibitory concentration (IC50) with Colo205 tumor cell lines is 100 to 1000 nM; in assay [1] it was under 100 nM. On ErbB2 or EGFR (setting [2]), the “Activity (Method): pIC50 class” value is given as “+++ (B) (at least one pIC50 measurement of greater than 7 against either ErbB2 or EGFR)”.
